Assay results: patent publication US9012491B2, “Heterocyclic boronic acid ester derivatives and therapeutic uses thereof” (priority 2011, dated 2015)
Like-named read-outs stand apart in the source and are kept apart here.

Tests used:
Type in all cases: cell-based
[1] = test system: EC1010 (CMY-6, class C); test: Tigemonam potentiation (MPC@4) by β-lactamase inhibitors; conditions: tigemonam at 4 μg/mL; strain EC1010, CMY-6, class C; class symbols
Protocol: (§1) Selected β-lactamase inhibitors were tested for their ability to potentiate the monobactam tigemonam. […] Tigemonam is present in the test medium at 4 μg/mL. Compounds tested at the highest concentration of 40 μg/mL. In this assay potency of compounds is determined as a concentration of BLIs to inhibit growth of bacteria in the presence of 4 μg/mL of […] (MPC@4).

[2] = test system: KP1005 (CTX-M-14); test: as above; conditions: tigemonam at 4 μg/mL; strain KP1005, class A ESBL CTX-M-14; class symbols
Protocol: as §1

[3] = test system: ec308 (SHV-5); test: as above; conditions: tigemonam at 4 μg/mL; strain ec308, class A ESBL SHV-5; class symbols
Protocol: as §1

[4] = test system: KP1009 (CTX-M-15); test: as above; conditions: tigemonam at 4 μg/mL; strain KP1009, class A ESBL CTX-M-15; class symbols
Protocol: as §1

[5] = test system: KP1007 (OXA-10, class D); test: as above; conditions: tigemonam at 4 μg/mL; strain KP1007, OXA-10, class D; class symbols
Protocol: as §1

[6] = test system: ECL1002 (class C); test: as above; conditions: tigemonam at 4 μg/mL; strain ECL1002, class C; class symbols
Protocol: as §1

[7] = test system: ec302 (TEM-10); test: as above; conditions: tigemonam at 4 μg/mL; strain ec302, class A ESBL TEM-10; class symbols
Protocol: as §1

[8] = test system: KP1010 (SHV-12); test: as above; conditions: tigemonam at 4 μg/mL; strain KP1010, class A ESBL SHV-12; class symbols
Protocol: as §1

[9] = test system: KPX1001 (OXA-2, class D); test: as above; conditions: tigemonam at 4 μg/mL, strain KPX1001, OXA-2, class D
Protocol: as §1

[10] = test system: PAM2035 (class C); conditions: tigemonam at 4 μg/mL, strain PAM2035, class C
Protocol: as §1

[11] = test system: ec304 (TEM-26); test: Tigemonam potentiation (MPC@4) by β-lactamase inhibitors; conditions: tigemonam at 4 μg/mL; strain ec304, class A ESBL TEM-26; class symbols
Protocol: as §1

[12] = test system: EC1009 (TEM-10); test: as above; conditions: tigemonam at 4 μg/mL; strain EC1009, class A ESBL TEM-10; class symbols
Protocol: as §1

[13] = test system: KP1012 (SHV-18); test: as above; conditions: tigemonam at 4 μg/mL; strain KP1012, class A ESBL SHV-18; class symbols
Protocol: as §1

SMILES	MPC4 CMY-6, EC1010 [1]	MPC4 CTX-M-14 KP1005 [2]	MPC4 SHV-5 ec308 [3]	MPC4 CTX-M-15 KP1009 [4]	MPC4 OXA-10, KP1007 [5]	MPC4 ECL1002 [6]	MPC4 TEM-10 ec302 [7]	MPC4 SHV-12 KP1010 [8]	MPC4 OXA-2, KPX1001 [9]	MPC4 PAM2035 [10]	MPC4 TEM-26 ec304 [11]	MPC4 OXA-2, KPX1001 ([9]; class symbols)	MPC4 TEM-10 EC1009 [12]	MPC4 SHV-18 KP1012 [13]	MPC4 PAM2035 ([10]; class symbols)
CC(=O)N1CC(CC(=O)O)OB(O)[C@@H](NC(=O)Cc2cccs2)C1 (stereo partly drawn) [Compound 10, 2-((3R)-5-acetyl-2-hydroxy-3-(2-(thiophen-2-yl)acetamido)-1,5,2-oxazaborepan-7-yl)acetic acid]	Y (Y = MPC@4 of 2 μg/mL to 10 μg/mL.)	Y (Y = MPC@4 of 2 μg/mL to 10 μg/mL.)	Y (Y = MPC@4 of 2 μg/mL to 10 μg/mL.)	Y (Y = MPC@4 of 2 μg/mL to 10 μg/mL.)	X (X = MPC@4 of less than 2 μg/mL.)	Y (Y = MPC@4 of 2 μg/mL to 10 μg/mL.)	Z (Z = MPC@4 of greater than 10 μg/mL.)	X (X = MPC@4 of less than 2 μg/mL.)							
C[C@]1(Cn2ccnn2)[C@H](C(=O)O)N2C(=O)C[C@H]2S1(=O)=O [Tazobactam]									40 µg/mL	5 µg/mL					
O=C(O)CC1COC[C@H](NC(=O)Cc2cccs2)B(O)O1 (stereo partly drawn) [Compound 1, 2-((3R)-2-hydroxy-3-(2-(thiophen-2-yl)acetamido)-1,5,2-dioxaborepan-7-yl)acetic acid]	X (X = MPC@4 of less than 2 μg/mL.)	Y (Y = MPC@4 of 2 μg/mL to 10 μg/mL.)	Y (Y = MPC@4 of 2 μg/mL to 10 μg/mL.)	Y (Y = MPC@4 of 2 μg/mL to 10 μg/mL.)	Y (Y = MPC@4 of 2 μg/mL to 10 μg/mL.)	Y (Y = MPC@4 of 2 μg/mL to 10 μg/mL.)	Z (Z = MPC@4 of greater than 10 μg/mL.)	X (X = MPC@4 of less than 2 μg/mL.)			Z (Z = MPC@4 of greater than 10 μg/mL.)	X (X = MPC@4 of less than 2 μg/mL.)	Z (Z = MPC@4 of greater than 10 μg/mL.)	X (X = MPC@4 of less than 2 μg/mL.)	Y (Y = MPC@4 of 2 μg/mL to 10 μg/mL.)
COC(=O)N1CC(CC(=O)O)OB(O)[C@@H](NC(=O)Cc2cccs2)C1 (stereo partly shown) [Compound 45]		Y (Y = MPC@4 of 2 μg/mL to 10 μg/mL.)	Y (Y = MPC@4 of 2 μg/mL to 10 μg/mL.)	Y (Y = MPC@4 of 2 μg/mL to 10 μg/mL.)	X (X = MPC@4 of less than 2 μg/mL.)		Z (Z = MPC@4 of greater than 10 μg/mL.)	X (X = MPC@4 of less than 2 μg/mL.)							
O=C(O)[C@H]1/C(=C/CO)O[C@@H]2CC(=O)N21 [Clavulanic Acid]									1.25 µg/mL	>40 µg/mL					
